What was measured:
mice [1] = experiment: Antiarrhythmic activity, method of Ferrini et al, endovenous administration to mice; assay type: in vivo; conditions: for ED50: Mus musculus, iv, read-out: Antiarrythmic activity ED50
From the text: Antiarrhythmic activity (Parameter 1) has been determined according to the method of Ferrini et al (Arzn.-Forsch., 29 (II), 9a, 1947-77, 1979).

mean arterial pressure = experiment: Decrease in mean arterial pressure (hypotension), anesthetized rats, endovenous; assay type: in vivo; conditions: for ED50: Rattus norvegicus, iv
From the text: (§1) The decrease in arterial pressure (Parameter 2) and the effects on heart rate (Parameter 3) have been evaluated according to the usual conventional methods used in Cardiovascular Pharmacology.

heart rate = experiment: Effect on heart rate (bradycardia), anesthetized rats, endovenous; assay type: in vivo; conditions: for ED50: Rattus norvegicus, iv
From the text: as §1

cerebral flow = experiment: Cerebral flow change by electromagnetic flowmetry, anesthetized dogs; assay type: in vivo; conditions: endovenous, 5 mg/kg, variation over mean values before testing
Method: (§2) Both parameters have been measured by electromagnetic flowmetry (Narcomatic-Electromagnetic flowmeter) on 12 anesthetized dogs. The hemodynamic parameter average of animals before testing were pO2 =95.40±3.98; pCO2 =34.31.congruent.2.38 and pH-7.297±0.315 by endovenously administering the compounds of a 5 mg/kg dosis.

carotid flow = experiment: Carotid flow change by electromagnetic flowmetry, anesthetized dogs; assay type: in vivo; conditions: endovenous, 5 mg/kg, variation over mean values before testing
Method: as §2

arterial pressure = experiment: Mean arterial pressure determined simultaneously with cerebral and carotid flows, anesthetized dogs; assay type: in vivo; conditions: endovenous, 5 mg/kg, variation over mean values before testing
Method: (§3) The measurements of cerebral and carotid flow changes (parameters 4 and 5) have been made using the most sophisticated methods. Both parameters have been measured by electromagnetic flowmetry (Narcomatic-Electromagnetic flowmeter) on 12 anesthetized dogs. The hemodynamic parameter average of animals before testing were pO2 =95.40±3.98; pCO2 =34.31.congruent.2.38 and pH-7.297±0.315 by endovenously administering the compounds of a 5 mg/kg dosis.
(§4) Simultaneously with the measuring of cerebral and carotid flows, the mean arterial pressure and cerebral vascular resistance (parameters 6,7) in each animal was determined. These parameters were measured according to the conventional method in Cardiovascular Pharmacology and the values were tabulated as the variation rate (Increase or Decrease) over mean values before testing.

[2] = tested on: cerebral vascular resistance; experiment: Cerebral vascular resistance determined simultaneously with cerebral and carotid flows, anesthetized dogs; assay type: in vivo; conditions: endovenous, 5 mg/kg, variation over mean values before testing
Method: as §3, §4

in vivo = conditions: mouse, iv
mice [3] = conditions: endovenous

SMILES	ED50 (mice [1]) [mg/kg]	ED50 (mean arterial pressure) [mg/kg]	ED50 (heart rate) [mg/kg]	Cerebral flow Increase (cerebral flow) [%]	Carotid flow Decrease (carotid flow) [%]	Arterial pressure Decrease (arterial pressure) [%]	Cerebral vascular resistance Decrease [2] [%]	LD50 (in vivo) [mg/kg]	Antiarrythmic activity ED50 (mice [1]) [mg/kg]	Mean arterial pressure, Hypotension ED50 (mean arterial pressure) [mg/kg]	Heart rate, Bradycardia ED50 (heart rate) [mg/kg]	Acute toxicity LD50 (mice [3]) [mg/kg]
CCOC(=O)C=CCN1CCN(C(c2ccccc2)c2ccccc2)CC1 [Compound 7]	23	2.1	3.8	32.0	13.0	27.3	44.7	100 ± 6.27				
C=C(CN1CCCCC1)CN1CCN(C(c2ccccc2)c2ccccc2)CC1 [Compound 6, 1-Benzhydryl-4-(2-(1-piperidinylmethyl)-2-propenyl)piperazine]	4.3	1.5	1.7	70.0	22.0	58.0	75.3	8.6 ± 0.54				
c1ccc(C(c2ccccc2)N2CCN(CCCC3(c4ccccc4)OCCO3)CC2)cc1 [Compound 13]	4	1.5	2.6	140.1	25.7	35.0	73.1	42.5 ± 3.05				
Cl.Cl.c1ccc(C(c2ccccc2)N2CCN(CC3CC3)CC2)cc1 [Compound 1, 1-Benzhydryl-4-cyclopropylmethyl-piperazine dihydrochloride]	4.2	2.7	3.4	55.0	68.0	30.0	55.0	25.6 ± 4.39				
C(=C\c1ccccc1)/CN1CCN(C(c2ccccc2)c2ccccc2)CC1 [Cinnarizine 2HCI, reference compound]				76.7	62.8	43.0	68.0					
C=CCN1CCN(C(c2ccccc2)c2ccccc2)CC1 [Aligeron 2HCI, reference compound]				64.0	21.3	36.0	61.0		4.4	1.3	4.8	38.5 ± 1.06
O=C1NCC(CN2CCN(C(c3ccccc3)c3ccccc3)CC2)O1 (stereo not drawn) [Compound 15]	16.5	1.2	3	38.5	60.0	45.5	60.3	40 ± 4.19				
O=C(CCCN1CCN(C(c2ccccc2)c2ccccc2)CC1)c1ccccc1 [Compound 11]	6.9	0.43	2.1	81.0	40.9	50.0	74.0	21 ± 1.72				

Source: patent US4883797A, “Derivatives of piperazine, method for making the same” (Ferrer Internacional, S.A., priority 1982, dated 1989)
